Measurements published in US20090264382A1, “Methods for Treating Hematopoietic Neoplasms” (priority 2007, published 2009).

Assays:
[1] = system: AML cells / panel of leukemic cell lines; assay: Leukemic cell proliferation, viable cell count by trypan blue exclusion; type: cell-based, human; conditions: 48 hours
Experimental: Leukemic cells were seeded at 1×10^5 cells/ml in X-vivo medium (Bio-Whittaker, MA) with 5% FBS and CA4P or pre-incubated with the PARP-inhibitor DPQ or caspase-inhibitors Z-VAD-fmk and Q-VD-OPh (R&D, Minneapolis, Minn.). A panel of leukemic cells was incubated with CA4P at the different concentrations indicated in FIG. 1, and viable cells were counted after 48 hours using trypan blue exclusion. Results of four experiments in duplicate are expressed as the ratio of the percentage of viable cells/control±SEM (*p<0.05 as compared with CA4P-untreated cells; n=4). After incubation for 48 hours, cells were counted using trypan-blue exclusion. CA4P at concentrations as low as 1 nM initiated cell death of non-adherent, anchorage-independent AML cells in vitro, with the IC50 ranging from 2.5 to 5 nM (FIG. 1). The majority of the AML cell lines tested was sensitive to CA4P at a concentration of 2.5 nM or less. All leukemic cell lines, as well as a recently established primary leukemic cell line (R81) 16 were sensitive at low doses of CA4P (<10 nM).

leukemic cells = assay: Comet assay for DNA damage; type: cell-based, human; conditions: after CA4P treatment
Experimental: DNA damage in CA4P-incubated leukemic cells was assessed by comet assay. The concept behind this assay is based upon the ability of denatured, cleaved DNA fragments to migrate out of the cell under the influence of an electric field, whereas undamaged DNA migrates more slowly and remains within the confines of the nucleus. Evaluation of the DNA “comet” tail shape and migration pattern allows for assessment of DNA damage. Results were expressed as the percentage of cells with a comet tail in 100 randomly selected, non-overlapping cells visualized by standard light microscopy. […] Results of three experiments in duplicate are expressed as the mean of the number of cells with a comet tail (%)±SEM (*p<0.05 as compared with CA4P-untreated cells; n=3).

AML cell lines = assay: Annexin-V/propidium iodide apoptosis by flow cytometry; type: cell-based, human; conditions: 48 hours
Experimental: CA4P-treated AML cells were subjected to Annexin-V/propidium iodide (PI) staining and quantification by flow cytometry. Combretastatin A-4 phosphate (CA4P) induces caspase-independent apoptosis in leukemic cells. CA4P induces apoptosis of leukemic cells. Leukemic cells were treated with or without CA4P for 48 hours and the percentage of apoptotic leukemic cells was determined by Annexin V and propidium iodide staining using flow cytometry. Results are representative of three independent experiments. […] In the majority of AML cell lines tested, CA4P at a concentration of 5 nM induced phosphatidylserine externalization (Annexin V+) in more than 50% of the leukemic cells.

KG1a leukemic cells = assay: Release of nuclear HMG1 protein into supernatant (necrosis marker), Western blot; type: cell-based, human; conditions: 24 hours, CA4P 20 mM, staurosporine 100 μM as printed
Experimental: Nonetheless, to rule out the possibility that CA4P may trigger necrotic cell death in subsets of the leukemic cells, the release of nuclear HMG1 protein into the culture supernatant, which has been described as a sensitive and highly specific marker for necrotic cell death (Scaffidi, et al. 2002. Nature 418, 191-5), was quantified. For detection of HMG1 protein, KG1a leukemic cells (1×106 in 2 ml X-vivo/5% FBS) were incubated with 100 μM staurosporine to induce apoptosis, freeze-thawed three times to induce necrosis, or treated with 20 mM CA4P for 24 hours. Cells were spun down, pelleted and the supernatant subjected to Western blot for HMG135.

GFP-labeled U937 cells = assay: Systemic in vivo leukemia model, GFP+U937; set-up: species or system NOD-SCID mice; conditions: after 30 days, data not shown
Experimental: NOD-SCID mice were intravenously inoculated with 1×10^7 GFP+HL60 cells. The HL60 cells were labeled with green fluorescent protein (GFP) by a lentiviral construct, and inoculated systemically through tail vein injection. Three days after inoculation, mice were divided into 2 groups of five mice. One group was treated every other day with PBS (control) and the second group received 25 mg/kg CA4P every other day. Each experiment was done three times. At day 30 after the start of the experiment, two mice from each group were killed, and their organs (spleen, liver and lung), peripheral blood and marrow of surgically removed femurs were collected, and analyzed for the presence of human leukemic cells by flow cytometry. Single cell suspension was stained using phytoerythrin-labeled anti-human CD45 mAb (Pharmingen), and the percentage of double positive human CD45-PE and GFP cells was determined flow cytometer. The extent of GFP+HL60 cell infiltration was assessed by fluorescence microscopy. In a second set of experiments, GFP+U937 cells were used instead of HL60 cells, and the animals sacrificed after 30 days. […]

VCAM-1 = VCAM-1 immunofluorescence in subcutaneous HL60 AML tumors; type: in vivo, NOD-SCID mice; conditions: data not shown
Experimental: CA4P may modulate leukemia-vascular interactions, thereby disrupting chemo-protected niches for leukemic cells. […] NOD-SCID mice with subcutaneous HL60 AML tumors were treated with CA4P or PBS (untreated control).

[2] = system: human umbilical cord derived (CB) CD34+ cells; assay: Cord blood CD34+ cell viability and colony formation; type: cell-based
Experimental: Cord blood CD34+ cells were isolated by magnetic procedure and cultured with recombinant human SCF (50 ng/ml, Peprotech) and CA4P for 48 h. Annexin/PI staining was then performed. CD34+ cells were also cultured in methylcellulose supplemented with cytokines and CA4P (Stem cell technologies, Vancouver, Canada) for 14 days. Colonies were scored. […] As such, CA4P used as single agent can selectively target circulating and or tissue-resident hematopoietic neoplasms without incurring significant hematological toxicity.

Q: Which “concentration at which all leukemic cell lines and primary line R81 were sensitive” value [1] does the source give for `COc1ccc(/C=C\c2cc(OC)c(OC)c(OC)c2)cc1OP(=O)(O)O` [CA4P, combretastatin A-4 phosphate] here?
A: < 10 nM

Q: And the “concentration at which the majority of the AML cell lines tested was sensitive” value [1]?
A: ≤ 2.5 nM

Q: And the “lowest concentration that initiated cell death of AML cells” value ([1]; in vitro)?
A: 1 nM

Q: What about the IC50 ([1]; Homo sapiens, trypan blue exclusion, range over cell lines, read-out: IC50, cell death of non-adherent, anchorage-independent AML cells) of the same molecule?
A: 2.5 to 5 nM

Q: What about the “number of leukemic cells displaying a comet tail” value (leukemic cells) of the same molecule?
A: strongly increased

Q: And the “leukemic cells with phosphatidylserine externalization (Annexin V+)” value (AML cell lines; 5 nM, majority of AML cell lines tested)?
A: more than 50%

Q: What about the “PI+, Annexin V(−) cells (necrotic)” value (AML cell lines) of the same molecule?
A: Only a small number

Q: What about the “release of nuclear HMG1 protein into the supernatant” value (KG1a leukemic cells) of the same molecule?
A: not

Q: What about the “GFP-positive U937 leukemic cells in the bone marrow” value (GFP-labeled U937 cells) of the same molecule?
A: less than 0.05%

Q: And the “GFP-positive U937 leukemic cells in the liver” value (GFP-labeled U937 cells)?
A: less than 0.05%

Q: And the “VCAM-1 expression in tumors” value (VCAM-1)?
A: significantly decreased VCAM-1 expression

Q: What about the “CD34+ cell viability (Annexin/PI staining)” value ([2]; 48 h with SCF 50 ng/ml) of the same molecule?
A: only minimal effect on cell viability

Q: What about the “colony-forming potential of CD34+ cells” value ([2]; methylcellulose, 14 days) of the same molecule?
A: did not impair colony-forming potential
